Paper PMC8213057, “Targeting ALK2: An Open Science Approach to Developing Therapeutics for the Treatment of Diffuse Intrinsic Pontine Glioma” (Journal of Medicinal Chemistry, 2020)

Assays:
[1] = target: CAMK2a (Homo sapiens, UniProt Q9UQM7); conditions: 1 μM; Run 1, Run 2
[2] = target: CAMK4 (Homo sapiens, UniProt Q16566); conditions: 1 μM; Run 1, Run 2
[3] = target: MEK2 (Homo sapiens, UniProt P36507); conditions: 1 μM; Run 1, Run 2
[4] = target: CDK14/cyclin Y (PFTK1) (Homo sapiens, UniProt O94921); assay: biochemical; conditions: read-out: % enzyme activity, 1 μM; Run 1, Run 2
[5] = target: CYP2C19
[6] = target: T1, MYO3b (Homo sapiens, UniProt Q8WXR4); assay: biochemical; conditions: read-out: % enzyme activity, 1 μM; Run 1, Run 2
T1 sequence (Q8WXR4 1-1341): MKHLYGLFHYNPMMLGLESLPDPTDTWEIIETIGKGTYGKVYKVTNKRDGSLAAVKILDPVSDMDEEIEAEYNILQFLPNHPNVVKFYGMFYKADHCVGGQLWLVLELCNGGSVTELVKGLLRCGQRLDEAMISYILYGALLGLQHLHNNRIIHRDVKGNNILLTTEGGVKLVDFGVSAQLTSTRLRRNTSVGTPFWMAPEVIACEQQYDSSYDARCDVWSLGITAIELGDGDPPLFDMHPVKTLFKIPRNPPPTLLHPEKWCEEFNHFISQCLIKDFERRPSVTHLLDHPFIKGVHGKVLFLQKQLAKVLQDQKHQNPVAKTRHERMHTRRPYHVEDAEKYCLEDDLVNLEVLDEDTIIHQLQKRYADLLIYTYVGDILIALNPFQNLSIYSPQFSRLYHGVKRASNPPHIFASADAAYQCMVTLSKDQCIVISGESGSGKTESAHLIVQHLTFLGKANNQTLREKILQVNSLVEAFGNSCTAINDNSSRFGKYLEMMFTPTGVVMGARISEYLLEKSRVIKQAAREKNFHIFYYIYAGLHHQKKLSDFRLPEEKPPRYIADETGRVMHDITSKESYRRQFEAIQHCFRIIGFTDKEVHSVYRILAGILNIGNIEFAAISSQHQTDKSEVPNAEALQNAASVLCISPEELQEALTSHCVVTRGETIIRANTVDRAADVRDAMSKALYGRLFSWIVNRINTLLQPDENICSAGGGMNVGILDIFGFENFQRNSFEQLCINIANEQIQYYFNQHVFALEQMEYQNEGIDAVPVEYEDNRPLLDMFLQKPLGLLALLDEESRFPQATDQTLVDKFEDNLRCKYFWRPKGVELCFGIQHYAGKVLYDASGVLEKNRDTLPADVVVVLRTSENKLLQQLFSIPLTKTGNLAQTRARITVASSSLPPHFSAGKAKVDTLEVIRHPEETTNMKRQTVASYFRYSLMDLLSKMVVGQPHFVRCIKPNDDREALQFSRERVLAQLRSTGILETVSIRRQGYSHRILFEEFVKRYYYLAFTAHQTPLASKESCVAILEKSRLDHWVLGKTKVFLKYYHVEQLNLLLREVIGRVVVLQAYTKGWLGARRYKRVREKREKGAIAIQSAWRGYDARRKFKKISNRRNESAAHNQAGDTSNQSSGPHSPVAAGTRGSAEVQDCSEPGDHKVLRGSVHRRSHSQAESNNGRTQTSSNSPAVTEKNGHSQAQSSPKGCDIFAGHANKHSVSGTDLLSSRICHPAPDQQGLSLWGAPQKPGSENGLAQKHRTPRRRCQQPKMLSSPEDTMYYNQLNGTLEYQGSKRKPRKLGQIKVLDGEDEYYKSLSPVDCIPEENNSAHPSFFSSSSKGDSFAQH

[7] = target: CK1g2 (Homo sapiens, UniProt P78368); conditions: 1 μM; Run 1, Run 2
[8] = target: T2, DMPK (Homo sapiens, UniProt Q09013); conditions: 1 μM; Run 1, Run 2
T2 sequence (Q09013 1-629): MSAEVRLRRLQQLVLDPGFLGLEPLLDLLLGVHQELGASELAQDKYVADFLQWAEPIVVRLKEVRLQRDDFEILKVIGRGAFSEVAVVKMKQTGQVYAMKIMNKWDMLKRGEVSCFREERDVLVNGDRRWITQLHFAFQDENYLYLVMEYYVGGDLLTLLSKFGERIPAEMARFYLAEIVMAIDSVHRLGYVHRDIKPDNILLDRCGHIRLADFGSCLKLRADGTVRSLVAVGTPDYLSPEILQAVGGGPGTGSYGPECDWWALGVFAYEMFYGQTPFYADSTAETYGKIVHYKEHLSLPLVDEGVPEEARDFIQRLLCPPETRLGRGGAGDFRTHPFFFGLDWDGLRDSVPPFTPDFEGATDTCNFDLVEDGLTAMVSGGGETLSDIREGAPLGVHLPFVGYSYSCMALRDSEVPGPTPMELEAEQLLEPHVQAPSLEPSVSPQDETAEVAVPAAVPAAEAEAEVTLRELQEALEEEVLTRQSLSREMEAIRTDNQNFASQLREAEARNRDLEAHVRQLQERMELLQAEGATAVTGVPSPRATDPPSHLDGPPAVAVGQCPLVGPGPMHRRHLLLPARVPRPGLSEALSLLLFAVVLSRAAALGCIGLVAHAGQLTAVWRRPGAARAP

[9] = target: WNK1 (Homo sapiens, UniProt Q9H4A3); conditions: 1 μM; Run 1, Run 2
[10] = target: CLK4 (Homo sapiens, UniProt Q9HAZ1); assay: biochemical; conditions: read-out: % enzyme activity, 1 μM; Run 1, Run 2
CLK4, sequence (Q9HAZ1 whole entry): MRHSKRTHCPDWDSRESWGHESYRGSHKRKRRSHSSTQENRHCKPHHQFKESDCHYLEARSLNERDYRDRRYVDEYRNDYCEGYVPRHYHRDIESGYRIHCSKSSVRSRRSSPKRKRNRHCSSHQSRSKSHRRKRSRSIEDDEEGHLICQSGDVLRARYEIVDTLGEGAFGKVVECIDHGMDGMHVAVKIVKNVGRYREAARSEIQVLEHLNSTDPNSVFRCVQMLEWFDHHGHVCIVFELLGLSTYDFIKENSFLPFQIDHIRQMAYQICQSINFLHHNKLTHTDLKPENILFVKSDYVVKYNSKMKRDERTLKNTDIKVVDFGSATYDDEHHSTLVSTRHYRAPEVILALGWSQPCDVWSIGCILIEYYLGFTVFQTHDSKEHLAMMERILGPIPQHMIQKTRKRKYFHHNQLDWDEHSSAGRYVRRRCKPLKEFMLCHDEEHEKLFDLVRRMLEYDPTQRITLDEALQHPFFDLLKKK

CAMK4, sequence (Q16566 whole entry): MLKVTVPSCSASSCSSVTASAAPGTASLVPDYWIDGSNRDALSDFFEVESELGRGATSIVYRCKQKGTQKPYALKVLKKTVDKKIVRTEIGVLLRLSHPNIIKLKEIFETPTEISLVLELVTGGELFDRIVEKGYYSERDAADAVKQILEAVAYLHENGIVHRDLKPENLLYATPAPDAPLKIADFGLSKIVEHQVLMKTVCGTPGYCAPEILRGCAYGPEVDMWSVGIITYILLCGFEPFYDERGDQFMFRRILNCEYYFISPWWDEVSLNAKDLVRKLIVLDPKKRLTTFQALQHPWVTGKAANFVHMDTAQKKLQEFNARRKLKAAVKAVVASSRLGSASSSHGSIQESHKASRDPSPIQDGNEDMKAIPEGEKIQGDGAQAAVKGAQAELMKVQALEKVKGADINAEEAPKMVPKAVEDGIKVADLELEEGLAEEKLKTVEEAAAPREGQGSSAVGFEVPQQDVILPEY
WNK1, sequence (Q9H4A3 whole entry, species assumed): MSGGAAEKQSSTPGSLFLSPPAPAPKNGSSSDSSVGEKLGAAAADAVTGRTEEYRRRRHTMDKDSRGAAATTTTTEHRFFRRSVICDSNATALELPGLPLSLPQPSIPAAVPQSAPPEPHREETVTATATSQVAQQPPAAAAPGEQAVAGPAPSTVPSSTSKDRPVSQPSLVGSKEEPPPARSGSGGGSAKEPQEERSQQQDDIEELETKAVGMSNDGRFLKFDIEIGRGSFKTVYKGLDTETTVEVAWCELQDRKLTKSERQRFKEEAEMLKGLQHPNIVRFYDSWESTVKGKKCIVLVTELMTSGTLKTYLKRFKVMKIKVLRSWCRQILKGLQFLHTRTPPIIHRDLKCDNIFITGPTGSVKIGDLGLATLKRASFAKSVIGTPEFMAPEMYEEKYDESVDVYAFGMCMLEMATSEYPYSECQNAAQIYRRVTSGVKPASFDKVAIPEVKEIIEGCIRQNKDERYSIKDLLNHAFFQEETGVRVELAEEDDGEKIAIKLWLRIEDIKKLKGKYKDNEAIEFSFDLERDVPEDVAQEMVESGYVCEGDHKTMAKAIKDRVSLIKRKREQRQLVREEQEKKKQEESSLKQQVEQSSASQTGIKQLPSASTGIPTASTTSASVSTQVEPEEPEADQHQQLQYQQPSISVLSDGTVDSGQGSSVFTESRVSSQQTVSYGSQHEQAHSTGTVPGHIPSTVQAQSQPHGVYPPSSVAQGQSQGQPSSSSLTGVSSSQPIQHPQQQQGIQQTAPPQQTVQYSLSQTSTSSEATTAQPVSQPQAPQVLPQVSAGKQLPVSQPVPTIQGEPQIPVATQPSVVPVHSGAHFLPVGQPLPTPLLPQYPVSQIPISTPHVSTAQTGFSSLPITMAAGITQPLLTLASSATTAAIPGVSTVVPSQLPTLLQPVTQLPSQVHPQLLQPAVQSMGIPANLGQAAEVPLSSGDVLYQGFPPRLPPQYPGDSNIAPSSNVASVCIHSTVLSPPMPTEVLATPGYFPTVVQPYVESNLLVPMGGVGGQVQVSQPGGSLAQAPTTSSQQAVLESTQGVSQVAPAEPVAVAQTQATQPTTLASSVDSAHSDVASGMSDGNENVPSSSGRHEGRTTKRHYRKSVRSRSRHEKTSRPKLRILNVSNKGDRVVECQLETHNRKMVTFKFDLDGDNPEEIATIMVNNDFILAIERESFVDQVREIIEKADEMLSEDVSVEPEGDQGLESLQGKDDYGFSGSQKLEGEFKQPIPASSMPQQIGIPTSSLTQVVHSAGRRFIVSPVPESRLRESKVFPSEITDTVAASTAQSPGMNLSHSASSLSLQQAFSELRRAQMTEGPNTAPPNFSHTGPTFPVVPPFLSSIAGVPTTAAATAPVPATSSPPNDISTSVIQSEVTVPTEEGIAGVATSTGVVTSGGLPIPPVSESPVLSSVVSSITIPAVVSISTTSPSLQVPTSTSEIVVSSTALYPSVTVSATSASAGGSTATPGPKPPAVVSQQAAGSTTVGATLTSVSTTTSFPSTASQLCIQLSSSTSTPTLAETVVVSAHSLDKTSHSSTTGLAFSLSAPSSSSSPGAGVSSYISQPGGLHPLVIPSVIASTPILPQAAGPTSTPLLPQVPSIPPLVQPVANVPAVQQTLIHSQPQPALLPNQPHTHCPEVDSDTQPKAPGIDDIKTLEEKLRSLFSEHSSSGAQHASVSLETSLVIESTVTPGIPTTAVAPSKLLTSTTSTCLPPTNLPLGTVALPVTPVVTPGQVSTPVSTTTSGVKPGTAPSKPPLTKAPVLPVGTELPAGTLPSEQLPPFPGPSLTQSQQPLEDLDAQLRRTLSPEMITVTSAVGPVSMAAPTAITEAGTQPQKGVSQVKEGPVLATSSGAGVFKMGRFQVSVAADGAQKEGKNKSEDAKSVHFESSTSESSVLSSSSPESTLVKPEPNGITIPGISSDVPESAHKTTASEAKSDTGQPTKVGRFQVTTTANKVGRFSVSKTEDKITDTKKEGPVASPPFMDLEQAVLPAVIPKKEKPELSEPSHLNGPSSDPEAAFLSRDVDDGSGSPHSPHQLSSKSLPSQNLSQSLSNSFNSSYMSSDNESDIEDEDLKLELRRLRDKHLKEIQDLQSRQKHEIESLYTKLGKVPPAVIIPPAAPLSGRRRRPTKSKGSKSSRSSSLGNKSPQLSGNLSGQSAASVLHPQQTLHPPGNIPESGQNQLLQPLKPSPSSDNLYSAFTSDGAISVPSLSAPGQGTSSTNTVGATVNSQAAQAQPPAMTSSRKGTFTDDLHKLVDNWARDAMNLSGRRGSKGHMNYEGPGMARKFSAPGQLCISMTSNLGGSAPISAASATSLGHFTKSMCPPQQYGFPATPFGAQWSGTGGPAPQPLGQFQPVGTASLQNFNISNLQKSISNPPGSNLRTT
CK1g2, sequence (P78368 whole entry): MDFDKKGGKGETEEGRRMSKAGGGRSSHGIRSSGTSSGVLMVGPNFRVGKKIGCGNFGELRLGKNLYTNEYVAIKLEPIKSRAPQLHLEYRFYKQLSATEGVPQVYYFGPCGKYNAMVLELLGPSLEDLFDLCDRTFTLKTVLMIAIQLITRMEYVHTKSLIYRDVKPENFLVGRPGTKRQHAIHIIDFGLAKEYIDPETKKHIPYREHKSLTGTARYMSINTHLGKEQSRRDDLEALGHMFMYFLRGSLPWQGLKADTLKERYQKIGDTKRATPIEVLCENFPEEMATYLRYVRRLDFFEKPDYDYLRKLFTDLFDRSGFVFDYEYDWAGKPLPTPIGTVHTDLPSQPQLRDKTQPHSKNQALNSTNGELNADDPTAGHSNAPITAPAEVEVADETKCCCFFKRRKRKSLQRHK
CDK14/cyclin Y (PFTK1), sequence (O94921 whole entry): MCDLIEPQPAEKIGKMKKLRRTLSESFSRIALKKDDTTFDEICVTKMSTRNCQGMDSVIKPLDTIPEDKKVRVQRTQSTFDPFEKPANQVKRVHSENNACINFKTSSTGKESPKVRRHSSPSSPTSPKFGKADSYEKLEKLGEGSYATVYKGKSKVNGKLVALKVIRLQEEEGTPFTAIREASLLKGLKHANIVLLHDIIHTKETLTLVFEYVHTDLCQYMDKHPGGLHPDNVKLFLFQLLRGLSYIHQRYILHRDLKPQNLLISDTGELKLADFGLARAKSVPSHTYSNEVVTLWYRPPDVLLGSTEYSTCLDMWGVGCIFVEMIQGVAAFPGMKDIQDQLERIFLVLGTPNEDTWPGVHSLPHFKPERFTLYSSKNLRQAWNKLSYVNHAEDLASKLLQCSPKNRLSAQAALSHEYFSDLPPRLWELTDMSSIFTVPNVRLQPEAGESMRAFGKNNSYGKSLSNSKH
CDK14/cyclin Y (PFTK1), sequence (Q8ND76 whole entry partner): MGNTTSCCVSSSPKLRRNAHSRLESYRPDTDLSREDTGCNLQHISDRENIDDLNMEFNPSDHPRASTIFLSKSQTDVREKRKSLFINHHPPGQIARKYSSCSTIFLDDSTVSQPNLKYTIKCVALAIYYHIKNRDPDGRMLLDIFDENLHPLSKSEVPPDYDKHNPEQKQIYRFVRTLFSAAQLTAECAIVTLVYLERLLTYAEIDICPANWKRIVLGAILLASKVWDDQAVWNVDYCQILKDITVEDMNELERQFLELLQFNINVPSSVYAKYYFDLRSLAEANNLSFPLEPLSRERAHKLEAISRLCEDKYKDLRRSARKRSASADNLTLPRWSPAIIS
CAMK2a, sequence (Q9UQM7 whole entry): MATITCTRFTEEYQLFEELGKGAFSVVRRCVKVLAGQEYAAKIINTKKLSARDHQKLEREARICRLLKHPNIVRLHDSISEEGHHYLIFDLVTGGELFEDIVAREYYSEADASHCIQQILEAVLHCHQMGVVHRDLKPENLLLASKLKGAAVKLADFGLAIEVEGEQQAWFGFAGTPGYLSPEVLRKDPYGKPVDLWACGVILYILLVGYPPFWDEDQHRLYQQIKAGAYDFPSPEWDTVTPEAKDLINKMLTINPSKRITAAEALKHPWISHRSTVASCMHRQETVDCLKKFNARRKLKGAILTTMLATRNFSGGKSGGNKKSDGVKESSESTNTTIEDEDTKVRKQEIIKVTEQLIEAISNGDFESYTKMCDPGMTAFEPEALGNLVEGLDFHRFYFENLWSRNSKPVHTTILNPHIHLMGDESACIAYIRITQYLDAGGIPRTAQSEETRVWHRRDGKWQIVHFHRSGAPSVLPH

Row | SMILES | % enzyme activity [1] [%] | % enzyme activity [2] [%] | % enzyme activity [3] [%] | remaining activity at 1 µM [4] [%] | CYP inhibition [5] [µM] | remaining activity at 1 µM [6] [%] | % enzyme activity [7] [%] | % enzyme activity [8] [%] | % enzyme activity [9] [%] | remaining activity at 1 µM [10] [%]
1 | COc1cc(-c2cncc(-c3ccc(N4C[C@@H](C)N(C)[C@@H](C)C4)cc3)c2C)cc(F)c1C(N)=O [Compound 26c, 2-Fluoro-6-methoxy-4-(4-methyl-5-(4-((3R,5S)-3,4,5-trimethylpiperazin-1-yl)phenyl)pyridin-3-yl)benzamide] | 93.72 | 100.90 | 91.58 | 99.8 | > 50 | 86.5 | 85.61 | 99.12 | 102.29 | 92.6
2 | COc1cc(-c2cncc(-c3ccc(N4CCN(C)CC4)cc3)c2C)cc(F)c1C(N)=O [Compound 26a, 2-Fluoro-6-methoxy-4-(4-methyl-5-(4-(4-methylpiperazin-1-yl)phenyl)pyridin-3-yl)benzamide] | 83.69 | 98.68 | 85.87 | 98.4 | > 50 | 81.6 | 75.72 | 108.75 | 107.33 | 88.9
